Source: PMC6316846, “Pretargeted Imaging with Gallium-68—Improving the Binding Capability by Increasing the Number of Tetrazine Motifs” (Pharmaceuticals, 2018)
Read-outs that look alike come from different tables or passages of the source.

Key:
[1] = Serum protein binding, Sephadex G-50 size exclusion; format: in vitro ADME; details: ^68Ga-labelled compound, human serum, 37 °C, mean ± SD (n = 3)
Method: Serum protein binding was determined using Sephadex G-50 (GE Healthcare Vienna, Austria) size exclusion chromatography. Aliquots (50 µL, n = 3) of the radioligand solution (~10 µM) were incubated in 450 µL freshly prepared human serum or 450 µL PBS (controls) and were kept at 37 °C. After 1, 2, and 4 h aliquots (25 µL) were directly transferred to the column (MicroSpin G-50, GE Healthcare) and after centrifugation (2 min, 2000 rcf) the column containing the free conjugate and the eluate containing the protein-bound conjugate were measured in the gamma counter. The percent of activity in both fractions was calculated thereafter.

immobilized RTX-TCO = assay: Competitive binding assay on immobilized RTX-TCO; details: non-labelled conjugate as competitor, 30 min RT
Method: Binding on immobilized RTX-TCO was conducted using high protein-binding capacity Nunc MaxiSorp™ 96-well plates (Thermo Fisher Scientific, Vienna, Austria). Coating was performed by adding 20 µg of antibody (RTX or RTX-TCO) dissolved in 100 µL coating buffer (0.1 M NaHCO3, pH 8.5) to each well and after 2 h incubation at RT the plate was left at 4 °C overnight both under the exclusion of light. After removal of the coating solution 200 µL of blocking buffer (1% BSA in PBS) was added, left for 1 h at room temperature and subsequently each well was washed twice with 200 µL binding buffer (0.1% BSA in PBS). Hereafter, the radioligand was mixed with increasing concentrations of the competitor (=non-labelled conjugate), diluted in binding buffer and 100 µL of the mixture was added to each well. After 30 min at RT the supernatant was removed, each well was washed three times with 150 µL binding buffer and the coating film was finally detached with 2 × 150 µL of hot (80 °C) 2 N sodium hydroxide (NaOH). The NaOH fraction was taken for gamma counter measurement to determine the percentage of binding in contrast to the standard followed by non-liner curve fitting using Origin 6.1 software (Origin Inc., Northampton, MA, USA) to calculate the apparent half maximum inhibitory concentration of the competitor (n = 3, 4 replicates).

[2] = Distribution coefficient (logD), octanol/PBS; format: physicochemical; details: mean ± SD (n = 3); for LogD (pH 7.4): ^68Ga-labelled compound
Method: To determine the distribution of the ^68Ga-labelled conjugates between an organic (octanol) and aqueous (PBS) layer, aliquots (50 µL) of the tracers (~5 µM) were diluted in 1 mL of octanol/PBS (1:1, v/v). The mixture was vortexed at 1400 rpm (MS 3 basic vortexer, IKA, Staufen, Germany) for 15 min at RT followed by centrifugation for 2 min at 4500 rpm. Subsequently, aliquots (50 µL) of both layers were collected and measured in the gamma counter (Wizard2 3”, Perkin Elmer, Waltham, MA, USA) followed by logD calculation (n = 3, six replicates).

[3] = tested on: CD20-expressing Raji cells; assay: FACS analysis of antibody binding to Raji cells; format: cell-based; details: antibody at 20 µM, APC-labelled anti-human IgG Fc secondary antibody
Method: The humanoid lymphoblast-like CD20-expressing B-lymphocyte cells (Raji cells) were purchased from American Type Culture Collection (ATCC, Manassas, VA, USA). Flow cytometric analysis of CD20 expression was evaluated on (Raji cells) adjusted to 5 × 10^5 cells/sample in DMEM (including 10% FCS, 1% Pen/Strep). Cells were incubated with FC-Block (containing CD16/CD32 (1:200), e-Bioscience, Thermo Fisher Scientific, Vienna, Austria) for 15 min at 4 °C in order to avoid signals from non-specific binding. The following antibodies were used: RTX-TCO and RTX, both at 20 µM (f. c.). As secondary antibody a APC-labelled anti-human IgG Fc (clone: HP6017; BioLedgend, San Diego, CA, USA) at a dilution of 1:100 was used. Antibodies were incubated for at least 15 min at 4 °C. FACS analysis was performed on BD LSRFortessa™ (Cell Analyzer, BD Bioscience, San Jose, CA, USA). As internal control samples unstained or stained with either primary or secondary antibodies were analyzed. FACS-data was analyzed by FlowJo v10 software.

[4] = radioligand [^68Ga]Ga-Tz-dimer, read-out: Competitor concentration reducing binding of [^68Ga]Ga-Tz-dimer by 50%
[5] = radioligand [^68Ga]Ga-Tz-monomer, read-out: Competitor concentration reducing binding of [^68Ga]Ga-Tz-monomer by 50%
[6] = radioligand [^68Ga]Ga-Tz-trimer, read-out: Competitor concentration reducing binding of [^68Ga]Ga-Tz-trimer by 50%

| Molecule | fraction unbound at 1 h ([1]; 1 h) | fraction unbound at 2 h ([1]; 2 h) | fraction unbound at 4 h ([1]; 4 h) | IC50 (immobilized RTX-TCO; [4]) [nM] | IC50 (immobilized RTX-TCO; [5]) [nM] | IC50 (immobilized RTX-TCO; [6]) [nM] | logD ([2]; octanol/PBS (1:1, v/v), pH 7.4, ^68Ga-labelled compound) | Protein Binding (%) 1 h ([1]; 1 h) [%] | Protein Binding (%) 2 h ([1]; 2 h) [%] | Protein Binding (%) 4 h ([1]; 4 h) [%] | LogD (pH 7.4) [2] | Target specificity by FACS [3] |
| --- | --- | --- | --- | --- | --- | --- | --- | --- | --- | --- | --- | --- |
| TCO-modified RTX: anti-CD20 monoclonal antibody rituximab modified with trans-cyclooctene (TCO-NHS ester) |  |  |  |  |  |  |  |  |  |  |  | high target specificity |
| rituximab [non-modified RTX, reference compound] |  |  |  |  |  |  |  |  |  |  |  | high target specificity |

Second part, led by results:

| fraction unbound at 1 h ([1]; 1 h) | fraction unbound at 2 h ([1]; 2 h) | fraction unbound at 4 h ([1]; 4 h) | IC50 (immobilized RTX-TCO; [4]) [nM] | IC50 (immobilized RTX-TCO; [5]) [nM] | IC50 (immobilized RTX-TCO; [6]) [nM] | logD ([2]; octanol/PBS (1:1, v/v), pH 7.4, ^68Ga-labelled compound) | Protein Binding (%) 1 h ([1]; 1 h) [%] | Protein Binding (%) 2 h ([1]; 2 h) [%] | Protein Binding (%) 4 h ([1]; 4 h) [%] | LogD (pH 7.4) [2] | Molecule | Target specificity by FACS [3] |
| --- | --- | --- | --- | --- | --- | --- | --- | --- | --- | --- | --- | --- |
| 0.382 | 0.362 | 0.36 | 865 ± 263 | 486 ± 52 | 2990 ± 1660 | -1.64 ± 0.02 |  |  |  |  | CC(=O)NC1CCCN(O)C(=O)/C=C(/C)CCOC(=O)C(NC(=O)CCOCCOCCOCCOCCOCCC(=O)NCc2ccc(-c3nncnn3)cc2)CCCN(O)C(=O)/C=C(/C)CCOC(=O)C(NC(C)=O)CCCN(O)C(=O)/C=C(/C)CCOC1=O (centres unmarked) [Tz-monomer, DAFC-PEG5-Tz] |  |
|  |  |  | 92 ± 15 | 100 ± 10 | 147 ± 49 |  | 70.5 ± 0.7 | 69.5 ± 0.4 | 67.8 ± 0.4 | −1.00 ± 0.06 | C/C1=C/C(=O)N(O)CCCC(NC(=O)CCOCCOCCOCCOCCOCCC(=O)NCc2ccc(-c3nncnn3)cc2)C(=O)OCC/C(C)=C\C(=O)N(O)CCCC(NC(=O)CCOCCOCCOCCOCCOCCC(=O)NCc2ccc(-c3nncnn3)cc2)C(=O)OCC/C(C)=C\C(=O)N(O)CCCC(NC(=O)CCOCCOCCOCCOCCOCCC(=O)NCc2ccc(-c3nncnn3)cc2)C(=O)OCC1 (centres unmarked) [Tz-trimer, FSC-(PEG5-Tz)3] |  |
|  |  |  | 95 ± 25 | 112 ± 6 | 258 ± 60 |  | 67.0 ± 2.4 | 65.9 ± 1.3 | 68.4 ± 0.3 | −1.35 ± 0.01 | CC(=O)NC1CCCN(O)C(=O)/C=C(/C)CCOC(=O)C(NC(=O)CCOCCOCCOCCOCCOCCC(=O)NCc2ccc(-c3nncnn3)cc2)CCCN(O)C(=O)/C=C(/C)CCOC(=O)C(NC(=O)CCOCCOCCOCCOCCOCCC(=O)NCc2ccc(-c3nncnn3)cc2)CCCN(O)C(=O)/C=C(/C)CCOC1=O (centres unmarked) [Tz-dimer, MAFC-(PEG5-Tz)2] |  |
